Consider four compounds from publication PMC3914206.

Assay [1] concerns the target T1, panel of 442 kinases (Homo sapiens, UniProt Q13163).
T1 construct: purchased KINOMEscan
T1 sequence (Q13163 1-448): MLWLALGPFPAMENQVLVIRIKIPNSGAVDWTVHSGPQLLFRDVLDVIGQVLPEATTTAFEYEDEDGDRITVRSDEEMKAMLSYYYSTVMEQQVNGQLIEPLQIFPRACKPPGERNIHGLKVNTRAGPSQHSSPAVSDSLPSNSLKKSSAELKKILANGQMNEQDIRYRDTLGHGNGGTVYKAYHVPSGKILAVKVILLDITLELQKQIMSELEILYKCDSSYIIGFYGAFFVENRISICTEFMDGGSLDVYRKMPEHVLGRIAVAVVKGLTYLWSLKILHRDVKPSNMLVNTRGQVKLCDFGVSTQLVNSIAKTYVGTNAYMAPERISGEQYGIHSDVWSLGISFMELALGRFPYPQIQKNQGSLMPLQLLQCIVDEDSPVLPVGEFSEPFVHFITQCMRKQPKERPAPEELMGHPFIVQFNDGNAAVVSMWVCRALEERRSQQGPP
In kind it is binding. Conditions: Compound Concentration 10 µM. The text has this:
(§1) We assessed the selectivity of members of this scaffold using the KINOMEscan methodology across a near comprehensive panel of 442 kinases [[18,27]].

The target in assay [2] is T2, panel of 442 kinases (Homo sapiens, UniProt Q9Y616).
T2 construct: purchased KINOMEscan
T2 sequence (Q9Y616 1-596): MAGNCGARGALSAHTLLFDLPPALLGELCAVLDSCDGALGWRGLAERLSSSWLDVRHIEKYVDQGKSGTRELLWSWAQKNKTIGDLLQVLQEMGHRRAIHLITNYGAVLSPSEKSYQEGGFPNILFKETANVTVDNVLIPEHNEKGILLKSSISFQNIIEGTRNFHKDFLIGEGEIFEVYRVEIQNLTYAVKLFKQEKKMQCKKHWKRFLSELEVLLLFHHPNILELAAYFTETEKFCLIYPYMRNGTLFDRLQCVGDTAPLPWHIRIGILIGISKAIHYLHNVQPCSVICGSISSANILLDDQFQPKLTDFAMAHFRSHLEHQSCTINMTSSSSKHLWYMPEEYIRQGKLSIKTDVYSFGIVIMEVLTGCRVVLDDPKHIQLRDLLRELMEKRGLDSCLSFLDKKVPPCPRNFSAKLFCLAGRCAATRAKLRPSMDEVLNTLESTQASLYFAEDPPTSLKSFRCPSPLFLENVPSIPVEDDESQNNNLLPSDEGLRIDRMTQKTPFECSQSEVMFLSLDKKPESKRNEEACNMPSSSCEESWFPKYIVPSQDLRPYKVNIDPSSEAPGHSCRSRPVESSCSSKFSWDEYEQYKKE
Format: binding. The following applies: Compound Concentration 10 µM.
Text: as §1

With `COc1cc(C(=O)N2CCC(N3CCN(C)CC3)CC2)ccc1Nc1ncc2c(n1)N(C)c1ccccc1C(=O)N2C` [15 (LRRK2-IN-1)], the “KINOMEscan: MEK5” value in assay [1] is reported as 85. In addition, the “KINOMEscan: IRAK3” value in assay [2] came to 100.
Take `COc1cc(C(=O)N2CCC(N3CCN(C)CC3)CC2)ccc1Nc1ncc2c(n1)N1CCc3cccc(c31)C(=O)N2C` [Compound 24]: in assay [1], the “KINOMEscan: MEK5” value came to 28.
`COc1cc(C(=O)N2CCC(N3CCN(C)CC3)CC2)ccc1Nc1ncc2c(n1)N(C1CCCC1)c1ccccc1C(=O)N2C` [Compound 25, 11-cyclopentyl-2-((2-methoxy-4-(4-(4-methylpiperazin-1-yl)piperidine-1-carbonyl)phenyl)amino)-5-methyl-5H-benzo[e]pyrimido[5,4-b][1,4]diazepin-6(11H)-one]: in assay [1], the “KINOMEscan: MEK5” value amounted to 83. The “KINOMEscan: IRAK3” value in assay [2] is 100.
As for `CCOc1cc(C(=O)N2CCC(N3CCN(C)CC3)CC2)ccc1Nc1ncc2c(n1)N(C1CCCC1)c1ccccc1C(=O)N2C` [Compound 26], in assay [1], the “KINOMEscan: MEK5” value came to 100. For the same compound, the “KINOMEscan: IRAK3” value in assay [2] came to 100.
